In ChEMBL document CHEMBL1201862, “PubChem BioAssay data set” (2004):
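Compound exposure: 48 hours, 5 concentrations, 96-well plates. At the GI50, growth is halved.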 Active and inactive are the calls of the source. Cut-off read from the data, not from the text of the source: active = GI50 up to about 1.1 µM and inactive = higher.

Legend:
Assay in all cases: inhibition of tumour cell growth, NCI panel, 48 h
ACHN = system: ACHN
SF-539 = system: SF-539
SK-MEL-5 = system: SK-MEL-5
MOLT-4 = system: MOLT-4
MCF7 = system: MCF7
MDA-MB-231 = system: MDA-MB-231
Malme-3M = system: Malme-3M
RXF 393 = system: RXF 393
MDA-N = system: MDA-N
DU-145 = system: DU-145
NCI-H522 = system: NCI-H522
HOP-92 = system: HOP-92
KM12 = system: KM12
HOP-62 = system: HOP-62
COLO 205 = system: COLO 205
UACC-257 = system: UACC-257
NCI-H226 = system: NCI-H226
OVCAR-4 = system: OVCAR-4
OVCAR-5 = system: OVCAR-5
Hs-578T = system: Hs-578T

Measured: GI50

COCCc1c(C)c(C#N)c2n(C)c3ccccc3n2c1=O
inactive: ACHN > 10 µM | SF-539 > 10 µM | SK-MEL-5 > 10 µM | MOLT-4 > 10 µM | MCF7 > 10 µM | MDA-MB-231 > 10 µM | Malme-3M > 10 µM | RXF 393 > 10 µM | MDA-N > 10 µM | DU-145 > 10 µM | NCI-H522 > 10 µM | HOP-92 > 10 µM | KM12 > 10 µM | HOP-62 > 10 µM | COLO 205 > 10 µM | UACC-257 > 10 µM | NCI-H226 > 10 µM | OVCAR-4 > 10 µM | OVCAR-5 > 10 µM | Hs-578T > 10 µM

O=C1NC(=S)N(c2cccc3ccccc23)C(=O)/C1=C/c1c[nH]c2ccccc12
inactive: ACHN 2.37 µM | SF-539 2.23 µM | SK-MEL-5 1.66 µM | MOLT-4 1.87 µM | MCF7 2.54 µM | MDA-MB-231 2.16 µM | Malme-3M 2.23 µM | RXF 393 1.91 µM | MDA-N 2.1 µM | DU-145 1.8 µM | NCI-H522 2.78 µM | HOP-92 2.13 µM | KM12 2.32 µM | HOP-62 2.83 µM | COLO 205 1.84 µM | UACC-257 2.31 µM | NCI-H226 2.42 µM | OVCAR-4 2.44 µM | OVCAR-5 2.4 µM | Hs-578T 3.52 µM

CN1C(=O)CC2(C)c3cc(O)ccc3N(C)C12 (stereo not given)
inactive: ACHN 63.2 µM | SF-539 64.1 µM | SK-MEL-5 22.5 µM | MOLT-4 19.3 µM | MCF7 18.6 µM | MDA-MB-231 19.5 µM | Malme-3M 54.5 µM | RXF 393 29.4 µM | MDA-N 17.6 µM | DU-145 > 40.4 µM | NCI-H522 43.3 µM | HOP-92 56.9 µM | KM12 31.3 µM | HOP-62 41 µM | COLO 205 36.8 µM | UACC-257 > 68.2 µM | NCI-H226 40.6 µM | OVCAR-4 5.45 µM | OVCAR-5 42.5 µM | Hs-578T > 48.9 µM

Nn1c(=O)[nH]c2ncn(Cc3ccccc3)c2c1=O
inactive: ACHN > 100 µM | SF-539 > 100 µM | SK-MEL-5 > 100 µM | MOLT-4 > 100 µM | MCF7 > 100 µM | MDA-MB-231 > 100 µM | Malme-3M > 100 µM | RXF 393 > 100 µM | MDA-N > 100 µM | DU-145 > 100 µM | NCI-H522 > 100 µM | HOP-92 > 100 µM | KM12 > 100 µM | HOP-62 > 100 µM | COLO 205 > 100 µM | UACC-257 > 100 µM | NCI-H226 > 100 µM | OVCAR-4 > 100 µM | OVCAR-5 > 100 µM | Hs-578T > 100 µM

C[N+]1(CCC(=O)c2ccccc2)CCC2CCC(C2)C1 (stereo not given)
inactive: ACHN > 100 µM | SF-539 > 100 µM | SK-MEL-5 > 100 µM | MOLT-4 > 100 µM | MCF7 > 100 µM | MDA-MB-231 > 100 µM | Malme-3M > 100 µM | RXF 393 > 100 µM | MDA-N > 100 µM | DU-145 > 100 µM | NCI-H522 > 100 µM | HOP-92 > 100 µM | KM12 > 100 µM | HOP-62 > 100 µM | COLO 205 > 100 µM | UACC-257 > 100 µM | NCI-H226 > 100 µM | OVCAR-4 > 100 µM | OVCAR-5 > 100 µM | Hs-578T > 100 µM

Cc1ccc(C)c2c1CC(Cc1ccccc1C(=O)O)C2=O (stereo not given)
inactive: ACHN > 100 µM | SF-539 > 100 µM | SK-MEL-5 > 100 µM | MOLT-4 > 100 µM | MCF7 > 100 µM | MDA-MB-231 > 100 µM | Malme-3M > 100 µM | RXF 393 83.2 µM | MDA-N > 100 µM | DU-145 > 100 µM | NCI-H522 > 100 µM | HOP-92 > 100 µM | KM12 > 100 µM | HOP-62 > 100 µM | COLO 205 > 100 µM | UACC-257 > 100 µM | NCI-H226 > 100 µM | OVCAR-4 > 100 µM | OVCAR-5 > 100 µM | Hs-578T > 100 µM

O=C(O)c1cc2ccccc2c(/N=N\c2cc(C(F)(F)F)ccc2Cl)c1O
inactive: ACHN 46.5 µM | SF-539 99.3 µM | SK-MEL-5 25.5 µM | MOLT-4 27.4 µM | MCF7 > 100 µM | MDA-MB-231 18.3 µM | Malme-3M 37.4 µM | RXF 393 35.2 µM | MDA-N > 100 µM | DU-145 74.1 µM | NCI-H522 > 100 µM | HOP-92 53.8 µM | KM12 23.8 µM | HOP-62 38.1 µM | COLO 205 39.7 µM | UACC-257 67.6 µM | NCI-H226 > 100 µM | OVCAR-4 86.9 µM | OVCAR-5 > 100 µM | Hs-578T 37.6 µM

COC(=O)c1ccccc1C1CN=NC12Cc1cc(C)c(C)cc1C2=O (stereo not given)
inactive: ACHN 40.2 µM | SF-539 84.3 µM | SK-MEL-5 18.7 µM | MOLT-4 34.3 µM | MCF7 24.4 µM | MDA-MB-231 27.2 µM | Malme-3M 52.4 µM | RXF 393 66.2 µM | MDA-N 33.7 µM | DU-145 > 100 µM | NCI-H522 14.3 µM | HOP-92 28 µM | KM12 29.7 µM | HOP-62 78 µM | COLO 205 49.9 µM | UACC-257 14.5 µM | NCI-H226 > 100 µM | OVCAR-4 29.6 µM | OVCAR-5 > 100 µM | Hs-578T 45.5 µM

CCOC(=O)/C=C(/OCC)[C@@H]1C(C(=O)c2ccc(Cl)cc2)[C@@H]1/C(=C\C(=O)OCC)OCC (stereo not given in full)
inactive: ACHN 13.2 µM | SF-539 22.1 µM | SK-MEL-5 4.41 µM | MOLT-4 3.98 µM | MCF7 11.2 µM | MDA-MB-231 10.1 µM | Malme-3M 16.8 µM | RXF 393 14.3 µM | MDA-N 17.5 µM | DU-145 47.1 µM | NCI-H522 3.62 µM | HOP-92 2.47 µM | KM12 6.87 µM | HOP-62 14.3 µM | COLO 205 6.68 µM | UACC-257 6.75 µM | NCI-H226 6.27 µM | OVCAR-4 67.3 µM | OVCAR-5 30.6 µM | Hs-578T 12.9 µM

O=[N+]([O-])c1ccc2c(/N=N/c3c(O)ccc4ccccc34)c(O)cc(S(=O)(=O)O)c2c1
inactive: ACHN 4.86 µM | SF-539 16.5 µM | SK-MEL-5 11.2 µM | MOLT-4 1.39 µM | MCF7 49.9 µM | MDA-MB-231 18 µM | Malme-3M 4.06 µM | RXF 393 14.8 µM | MDA-N 15.5 µM | DU-145 36.1 µM | NCI-H522 4.76 µM | HOP-92 16.6 µM | KM12 24.2 µM | HOP-62 6.73 µM | COLO 205 18.3 µM | UACC-257 20 µM | NCI-H226 17.5 µM | OVCAR-4 35.2 µM | OVCAR-5 8.34 µM | Hs-578T > 50 µM
